Assay results reported in ChEMBL document CHEMBL5038625, “Application of the dual-tail approach for the design and synthesis of novel Thiopyrimidine-Benzenesulfonamide hybrids as selective carbonic anhydrase inhibitors” (Eur J Med Chem, 2022).

How the values were obtained:
786-0 = experiment: Antiproliferative activity against human 786-0 cells assessed as cell growth inhibition at 10 uM incubated for 24 hrs by sulforhodamine B assay; type: functional; details: read-out: GI
RPMI-8226 = experiment: Antiproliferative activity against human RPMI-8226 cells assessed as cell growth inhibition at 10 uM incubated for 24 hrs by sulforhodamine B assay; type: functional; details: read-out: GI
MOLT-4 = experiment: Antiproliferative activity against human MOLT-4 cells assessed as cell growth inhibition at 10 uM incubated for 24 hrs by sulforhodamine B assay; type: functional; details: read-out: GI
SF-539 = experiment: Antiproliferative activity against human SF-539 cells assessed as cell growth inhibition at 10 uM incubated for 24 hrs by sulforhodamine B assay; type: functional; details: read-out: GI
LOX IMVI = experiment: Antiproliferative activity against human LOX IMVI cells assessed as cell growth inhibition at 10 uM incubated for 24 hrs by sulforhodamine B assay; type: functional; details: read-out: GI
PC-3 = experiment: Antiproliferative activity against human PC-3 cells assessed as cell growth inhibition at 10 uM incubated for 24 hrs by sulforhodamine B assay; type: functional; details: read-out: GI
Hs-578T = experiment: Antiproliferative activity against human HS-578T cells assessed as cell growth inhibition at 10 uM incubated for 24 hrs by sulforhodamine B assay; type: functional; details: read-out: GI
U-251 = experiment: Antiproliferative activity against human U-251 cells assessed as cell growth inhibition at 10 uM incubated for 24 hrs by sulforhodamine B assay; type: functional; details: read-out: GI
SR = experiment: Antiproliferative activity against human SR cells assessed as cell growth inhibition at 10 uM incubated for 24 hrs by sulforhodamine B assay; type: functional; details: read-out: GI
A498 = experiment: Antiproliferative activity against human A498 cells assessed as cell growth inhibition at 10 uM incubated for 24 hrs by sulforhodamine B assay; type: functional; details: read-out: GI
MDA-MB-468 = experiment: Antiproliferative activity against human MDA-MB-468 cells assessed as cell growth inhibition at 10 uM incubated for 24 hrs by sulforhodamine B assay; type: functional; details: read-out: GI
Carbonic anhydrase 9 = Carbonic anhydrase 9 (Homo sapiens, UniProt Q16790); experiment: Inhibition of human CA9 preincubated for 15 mins by phenol red dye based stopped flow CO2 hydration assay
KM12 = experiment: Antiproliferative activity against human KM12 cells assessed as cell growth inhibition at 10 uM incubated for 24 hrs by sulforhodamine B assay; type: functional; details: read-out: GI
CAKI-1 = experiment: Antiproliferative activity against human CAKI-1 cells assessed as cell growth inhibition at 10 uM incubated for 24 hrs by sulforhodamine B assay; type: functional; details: read-out: GI
MCF7 = experiment: Antiproliferative activity against human MCF7 cells assessed as cell growth inhibition at 10 uM incubated for 24 hrs by sulforhodamine B assay; type: functional; details: read-out: GI
OVCAR-4 = experiment: Antiproliferative activity against human OVCAR-4 cells assessed as cell growth inhibition at 10 uM incubated for 24 hrs by sulforhodamine B assay; type: functional; details: read-out: GI
SF-268 = experiment: Antiproliferative activity against human SF-268 cells assessed as cell growth inhibition at 10 uM incubated for 24 hrs by sulforhodamine B assay; type: functional; details: read-out: GI
UO-31 = experiment: Antiproliferative activity against human UO-31 cells assessed as cell growth inhibition at 10 uM incubated for 24 hrs by sulforhodamine B assay; type: functional; details: read-out: GI
K562 = experiment: Antiproliferative activity against human K562 cells assessed as cell growth inhibition at 10 uM incubated for 24 hrs by sulforhodamine B assay; type: functional; details: read-out: GI
MDA-MB-231 = experiment: Antiproliferative activity against human MDA-MB-231 cells assessed as cell growth inhibition at 10 uM incubated for 24 hrs by sulforhodamine B assay; type: functional; details: read-out: GI
EKVX = experiment: Antiproliferative activity against human EKVX cells assessed as cell growth inhibition at 10 uM incubated for 24 hrs by sulforhodamine B assay; type: functional; details: read-out: GI
RXF 393 = experiment: Antiproliferative activity against human RXF 393 cells assessed as cell growth inhibition at 10 uM incubated for 24 hrs by sulforhodamine B assay; type: functional; details: read-out: GI
HCT-15 = experiment: Antiproliferative activity against human HCT-15 cells assessed as cell growth inhibition at 10 uM incubated for 24 hrs by sulforhodamine B assay; type: functional; details: read-out: GI
T47D = experiment: Antiproliferative activity against human T47D cells assessed as cell growth inhibition at 10 uM incubated for 24 hrs by sulforhodamine B assay; type: functional; details: read-out: GI
ACHN = experiment: Antiproliferative activity against human ACHN cells assessed as cell growth inhibition at 10 uM incubated for 24 hrs by sulforhodamine B assay; type: functional; details: read-out: GI
NCI-H23 = experiment: Antiproliferative activity against human NCI-H23 cells assessed as cell growth inhibition at 10 uM incubated for 24 hrs by sulforhodamine B assay; type: functional; details: read-out: GI
HOP-92 = experiment: Antiproliferative activity against human HOP-92 cells assessed as cell growth inhibition at 10 uM incubated for 24 hrs by sulforhodamine B assay; type: functional; details: read-out: GI
NCI-H226 = experiment: Antiproliferative activity against human NCI-H226 cells assessed as cell growth inhibition at 10 uM incubated for 24 hrs by sulforhodamine B assay; type: functional; details: read-out: GI
OVCAR-3 = experiment: Antiproliferative activity against human OVCAR-3 cells assessed as cell growth inhibition at 10 uM incubated for 24 hrs by sulforhodamine B assay; type: functional; details: read-out: GI
UACC-62 = experiment: Antiproliferative activity against human UACC-62 cells assessed as cell growth inhibition at 10 uM incubated for 24 hrs by sulforhodamine B assay; type: functional; details: read-out: GI
Carbonic anhydrase 2 = Carbonic anhydrase 2 (Homo sapiens, UniProt P00918); experiment: Inhibition of human CA2 preincubated for 15 mins by phenol red dye based stopped flow CO2 hydration assay
DU-145 = experiment: Antiproliferative activity against human DU-145 cells assessed as cell growth inhibition at 10 uM incubated for 24 hrs by sulforhodamine B assay; type: functional; details: read-out: GI
HL-60 = experiment: Antiproliferative activity against human HL-60 cells assessed as cell growth inhibition at 10 uM incubated for 24 hrs by sulforhodamine B assay; type: functional; details: read-out: GI
Carbonic anhydrase 1 = Carbonic anhydrase 1 (Homo sapiens, UniProt P00915); experiment: Inhibition of human CA1 preincubated for 15 mins by phenol red dye based stopped flow CO2 hydration assay
Malme-3M = experiment: Antiproliferative activity against human Malme-3M cells assessed as cell growth inhibition at 10 uM incubated for 24 hrs by sulforhodamine B assay; type: functional; details: read-out: GI
NCI-H460 = experiment: Antiproliferative activity against human NCI-H460 cells assessed as cell growth inhibition at 10 uM incubated for 24 hrs by sulforhodamine B assay; type: functional; details: read-out: GI
SNB-75 = experiment: Antiproliferative activity against human SNB-75 cells assessed as cell growth inhibition at 10 uM incubated for 24 hrs by sulforhodamine B assay; type: functional; details: read-out: GI
SW-620 = experiment: Antiproliferative activity against human SW-620 cells assessed as cell growth inhibition at 10 uM incubated for 24 hrs by sulforhodamine B assay; type: functional; details: read-out: GI
CCRF-CEM = experiment: Antiproliferative activity against human CCRF-CEM cells assessed as cell growth inhibition at 10 uM incubated for 24 hrs by sulforhodamine B assay; type: functional; details: read-out: GI
SF-295 = experiment: Antiproliferative activity against human SF-295 cells assessed as cell growth inhibition at 10 uM incubated for 24 hrs by sulforhodamine B assay; type: functional; details: read-out: GI
OVCAR-8 = experiment: Antiproliferative activity against human OVCAR-8 cells assessed as cell growth inhibition at 10 uM incubated for 24 hrs by sulforhodamine B assay; type: functional; details: read-out: GI
A549 = experiment: Antiproliferative activity against human A549 cells assessed as cell growth inhibition at 10 uM incubated for 24 hrs by sulforhodamine B assay; type: functional; details: read-out: GI
SK-MEL-5 = experiment: Antiproliferative activity against human SK-MEL-5 cells assessed as cell growth inhibition at 10 uM incubated for 24 hrs by sulforhodamine B assay; type: functional; details: read-out: GI
NCI/ADR-RES = experiment: Antiproliferative activity against human NCI-ADR-RES cells assessed as cell growth inhibition at 10 uM incubated for 24 hrs by sulforhodamine B assay; type: functional; details: read-out: GI
HCT-116 = experiment: Antiproliferative activity against human HCT-116 cells assessed as cell growth inhibition at 10 uM incubated for 24 hrs by sulforhodamine B assay; type: functional; details: read-out: GI
SN12C = experiment: Antiproliferative activity against human SN12C cells assessed as cell growth inhibition at 10 uM incubated for 24 hrs by sulforhodamine B assay; type: functional; details: read-out: GI

Chain of Carbonic anhydrase 1 (P00915 whole entry): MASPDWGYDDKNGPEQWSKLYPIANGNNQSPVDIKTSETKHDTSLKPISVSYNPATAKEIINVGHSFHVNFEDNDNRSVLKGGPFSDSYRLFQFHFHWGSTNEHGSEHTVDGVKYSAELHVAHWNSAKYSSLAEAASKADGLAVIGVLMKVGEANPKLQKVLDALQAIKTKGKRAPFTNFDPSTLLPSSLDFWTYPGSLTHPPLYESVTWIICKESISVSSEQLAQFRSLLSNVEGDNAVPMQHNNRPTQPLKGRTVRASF

Compound	inhibition of growth at 10 µM (RPMI-8226) [%]	inhibition of growth at 10 µM (MOLT-4) [%]	inhibition of growth at 10 µM (SF-539) [%]	inhibition of growth at 10 µM (LOX IMVI) [%]	inhibition of growth at 10 µM (PC-3) [%]	inhibition of growth at 10 µM (Hs-578T) [%]	inhibition of growth at 10 µM (U-251) [%]	inhibition of growth at 10 µM (SR) [%]	inhibition of growth at 10 µM (A498) [%]	Ki (Carbonic anhydrase 9) [nM]	inhibition of growth at 10 µM (CAKI-1) [%]	inhibition of growth at 10 µM (MCF7) [%]	inhibition of growth at 10 µM (OVCAR-4) [%]	inhibition of growth at 10 µM (UO-31) [%]	inhibition of growth at 10 µM (K562) [%]	inhibition of growth at 10 µM (MDA-MB-231) [%]	inhibition of growth at 10 µM (RXF 393) [%]	inhibition of growth at 10 µM (HCT-15) [%]	inhibition of growth at 10 µM (HOP-92) [%]	inhibition of growth at 10 µM (HL-60) [%]	also measured
COc1ccc(C(=O)CSc2nc(Nc3cccc(S(N)(=O)=O)c3)c(C#N)c(-c3cc(OC)ccc3OC)n2)cc1	12.6	18.2	11.2	11.3	8.57	10.4	9.1	12.7	23.9	7	29.2	11.8	7.16	29.2	10.7	5.72	11.7	10.6			inhibition of growth at 10 µM (786-0): 7.02%; inhibition of growth at 10 µM (MDA-MB-468): 8.93%; inhibition of growth at 10 µM (KM12): 5.79%; inhibition of growth at 10 µM (SF-268): 5.3%; inhibition of growth at 10 µM (EKVX): 6.35%; inhibition of growth at 10 µM (T47D): 15.2%; inhibition of growth at 10 µM (ACHN): 5.69%
CC(C)c1nc(SCC(=O)c2ccc(Br)cc2)nc(Nc2cccc(S(N)(=O)=O)c2)c1C#N			5.74							97.4	12.7	12.4		20.9			8.85		15		inhibition of growth at 10 µM (NCI-H23): 5.54%; inhibition of growth at 10 µM (NCI-H226): 6.88%; inhibition of growth at 10 µM (OVCAR-3): 6.91%; inhibition of growth at 10 µM (UACC-62): 8.44%
Cc1ccc(-c2nc(SCC(=O)c3ccc(Br)cc3)nc(Nc3ccc(S(N)(=O)=O)cc3)c2C#N)cc1			17.1	11.8		14.3		11.4		8740	13.7	16.5		22.4	8			11.3	40.4	< 5	inhibition of growth at 10 µM (NCI-H23): 6.49%; Ki (Carbonic anhydrase 2): > 20000 nM; inhibition of growth at 10 µM (DU-145): 47.5%; Ki (Carbonic anhydrase 1): > 20000 nM; inhibition of growth at 10 µM (Malme-3M): 8.67%
COc1ccc(C(=O)CSc2nc(Nc3ccc(S(N)(=O)=O)cc3)cc(-c3ccccc3)n2)cc1		22.1		26.1				27	19.8	91.5	12.6			13	46.3			9.43		15	inhibition of growth at 10 µM (NCI-H460): 26.9%; inhibition of growth at 10 µM (SNB-75): 10.4%; inhibition of growth at 10 µM (SW-620): 13.9%; Ki (Carbonic anhydrase 2): > 20000 nM; Ki (Carbonic anhydrase 1): > 20000 nM; inhibition of growth at 10 µM (UACC-62): 13.2%; inhibition of growth at 10 µM (ACHN): 28%; inhibition of growth at 10 µM (CCRF-CEM): 11%
CC(C)c1nc(SCC(=O)c2ccccc2)nc(Nc2cccc(S(N)(=O)=O)c2)c1C#N	17.9	28.2	12.2		27.3		5.45	19	10.7	92.3	10.8	12.6	9.85	27.4	26.7	14.9	17.3	12.1	61	25.2	inhibition of growth at 10 µM (NCI-H226): 10%; inhibition of growth at 10 µM (SF-295): 5.43%; inhibition of growth at 10 µM (OVCAR-8): 5%; inhibition of growth at 10 µM (A549): 5.5%; inhibition of growth at 10 µM (EKVX): 5.72%; inhibition of growth at 10 µM (SK-MEL-5): 7.01%; inhibition of growth at 10 µM (NCI/ADR-RES): 5.69%; inhibition of growth at 10 µM (T47D): 17.9%; inhibition of growth at 10 µM (CCRF-CEM): 13.8%; inhibition of growth at 10 µM (HCT-116): 5.73%; inhibition of growth at 10 µM (SN12C): 8.21%
